Experimental data as given in US20180369195A1, “COMBINATION THERAPY FOR TREATMENT OF MELANOMA” (The Regents of the University of California, priority 2015, published 2018).
“Also recorded” adds a separate entry of the source.

Experiments:
Assay type in all cases: cell-based, human
G-361 melanoma cells = assay: CCK-8 proliferation assay, G-361
Experimental: (§1) The same treatment regime was repeated on multiple melanoma cell lines with 20 μM 1-benzyl I3C and 200 μM I3C for 48 hours to compare the relative sensitivities of the different cell lines with distinct mutation profiles to 1-benzyl I3C and I3C. Cells were treated with 20 μM 1-benzyl I3C every 24 hours for 72 hours and harvested at 24, 48 and 72 hours for western blot and flow cytometric analysis. Cells were treated with 20 μM LiCl or 10 μM BIO for 48 hours before harvesting them for western blots.
(§2) To study the effect of I3C, cells were treated with or without 200 μM I3C every 24 hours for 72 hours and harvested at 24, 48 and 72 hours for western blot and flow cytometric analysis.
(§3) Subsequently inhibition of proliferation was assessed using Cell counting Kit-8 (Dojindo) as per the protocol in the user's manual. Briefly, 50 μl of the CCK-8 solution was added to each well along with 450 μl media and incubated for 2-3 hours. The absorbance was read at 450 nm and % inhibition was calculated for each condition standardizing DMSO to zero using the formula: [(100−Value of treatment/Value of DMSO treated control)×100]

DM738 melanoma cells = assay: CCK-8 proliferation assay, DM738
Experimental: as §1, §2, §3

SK-MEL-2 cells = assay: CCK-8 proliferation assay, SK-MEL-2; details: for antiproliferation in wild-type BRAF cells: 48 hours
Experimental: […] Cells were treated with 20 μM 1-benzyl I3C every 24 hours for 72 hours and harvested at 24, 48 and 72 hours for western blot and flow cytometric analysis. Cells were treated with 20 μM LiCl or 10 μM BIO for 48 hours before harvesting them for western blots.
as §3

MITF-M = MITF-M protein levels in cultured melanoma cells (western blot, immunofluorescence)
Experimental: Western Blot analyses of samples electrophoretically fractionated on 12% acrylamide gels were carried out as previously described (Wagle et al., J. Clin. Oncol. 2011. 29(22):3085-3096; Nguyen et al., Chem. Biol. Interact. 2010. 186(3):255-266). Enhanced chemiluminescence (ECL) Lightening reagents were used to visualize the primary antibody bound protein bands in nitrocellulose membranes and the results captured on ECL Autoradiography Film (GE Healthcare, Piscataway, N.J.). The western blots employed the following primary antibodies: mouse anti-MITF-M (Thermo-scientific), mouse anti-HSP 90 (BD Biosciences), mouse anti-CDK2, rabbit anti-CDK4, rabbit anti-CDK-6, mouse anti-rabbit BRAF, goat anti-LEF-1, rabbit anti-AXIN, mouse anti-BCL2, (Santa Cruz), rabbit anti-P21, mouse anti-Cyclin D1, rabbit anti-MEK-p, rabbit anti-MEK1/2, rabbit anti-GSK3β rabbit anti-LRP6, rabbit anti-LRP6-phospho (Cell signaling), mouse anti-β-catenin (Invitrogen).

MITF-M transcript = assay: RT-PCR analysis of MITF-M transcripts; details: for MITF-M transcript levels: 200 μM I3C, 72 hour time course
Experimental: Total RNA was extracted from harvested cells using the RNeasy extraction kit for mammalian cells (obtained from Qiagen, Hercules, Calif.) and spectrophotometrically quantified by absorbance at 260 nm. Reverse transcription (RT) reactions were carried out using RT-MMLV reverse transcriptase (Invitrogen, Eugene, Oreg.) and the cDNA was used for polymerase chain reaction (PCR) reactions using 10 pM of the following primers: MITF-M forward 5′ CCGTCTCTCACTGGATTGGT 3′ (SEQ ID NO:1), MITF-M Reverse 5′ TACTTGGTGGGGTTTTCGAG 3′ (SEQ ID NO:2) GAPDH forward, […] (SEQ ID NO:3) and reverse, […] (SEQ ID NO:4). PCR conditions were as follows: 30 s at 94° C., 30 s at 55° C. and 30 s at 72° C. for 28 cycles. PCR products were electrophoretically fractionated in 1.5% agarose gels containing 0.01% Gel Red (Biotium) for DNA staining along with 1 kb plus DNA ladder (Thermo Scientific) and further visualized by a UV transilluminator.

MITF-M promoter = MITF-M promoter luciferase reporter assay; details: G361 cells, 24 hours
Experimental: G361 Melanoma cells were cultured to approximately 80% confluency in 6 well adherent culture plates in triplicates for each experimental condition for 24 hours. The cells were then transiently transfected with either a wild-type pGL2-pMITF-333/+120-luciferase reporter plasmid or a similar plasmid with the LEF-1/TCF binding site mutated at −199. pGL2-pMITF-333/+120-ΔLEF-1-luciferase, (ALEF-1) was generated using the following primers: LEF-1 forward, 5′-[…]-3′ (SEQ ID NO:5) and LEF-1 reverse, 5′-[…]-3′ (SEQ ID NO:6).
PCR conditions used were as follows: 30 s hotstart at 95° C., 30 s at 95° C., 1 min at 55° C., 8 min at 68° C. for 16 cycles. Mutagenesis was performed using QuickChange II kit (Aligent) per the manufacturer's instructions. PCR products were extracted and purified using QIAquick Gel Extraction Kit (Qiagen). Sequence was confirmed by automated DNA sequencing (University of California Berkeley Sequencing Facility). […] 20 μl of supernatant from each sample was combined with 100 μl luciferase substrate (Promega) and emitted fluorescence was measured using luminometer, Lumat LB 9507 (EG&G Berthold) and the relative light units (RLU) were recorded. The RLU/μg for each sample was calculated by dividing the data obtained with their specific protein concentration determined by a Bradford assay using 1× BioRad Protein Assay reagent and measuring O.D at 595 nm.

[1] = 200 μM I3C, 72 hours, BRAF-V600E

## OCc1cn(Cc2ccccc2)c2ccccc12 [1-benzyl I3C, 1-benzyl indole-3-carbinol]
G-361 melanoma cells; 48 hours
  fold lower concentration than I3C: 10-20 fold
  optimum concentration for antiproliferation: 10 to 20 µM
G-361 melanoma cells; 48 hours, listed as 1-Benzyl I3C
  fold lower concentration than I3C: > 10 fold
G-361 melanoma cells; varying doses, 48 hours
  antiproliferation compared with I3C: significantly greater antiproliferation than I3C
DM738 melanoma cells; 48 hours
  fold lower concentration than I3C: 10-20 fold
  optimum concentration for antiproliferation: 10 to 20 µM
DM738 melanoma cells; varying doses, 48 hours
  antiproliferation compared with I3C: significantly greater antiproliferation than I3C
SK-MEL-2 cells
  antiproliferation in wild-type BRAF cells: showed antiproliferation
MITF-M; G361 and DM738 cells, 1-benzyl I3C, 24, 48, 72 hours
  MITF-M protein levels (western blot): significant downregulation of MITF-M
MITF-M; SK-MEL-2 cells (WT BRAF), 1-benzyl I3C, 24, 48, 72 hours
  MITF-M protein levels (western blot): significant inhibitory effect on MITF-M protein levels
MITF-M transcript; G-361, DM738, SK-MEL-2 cells, 1-benzyl I3C
  MITF-M transcript level: concomitant inhibition of MITF-M transcript level
MITF-M promoter; 20 μM 1-benzyl I3C
  MITF-M promoter activity (luciferase reporter, WT): Luciferase activity was significantly abrogated

## OCc1c[nH]c2ccccc12 [I3C, indole-3-carbinol]
G-361 melanoma cells; [1]
  sensitivity to anti-proliferative effects: Most sensitive
G-361 melanoma cells; 200 μM I3C, submaximal 24 hours, empty vector transfected or untransfected cells
  proliferative arrest: 60%
G-361 melanoma cells; 48 hours
  optimum concentration for antiproliferation: 200 to 300 µM
DM738 melanoma cells; [1]
  sensitivity to anti-proliferative effects: Most sensitive
DM738 melanoma cells; 48 hours
  optimum concentration for antiproliferation: 200 to 300 µM
SK-MEL-2 cells; 200 μM I3C, 72 hours, wild type BRAF
  sensitivity to anti-proliferative effects: significantly less sensitive
SK-MEL-2 cells
  antiproliferation in wild-type BRAF cells: ineffective
MITF-M; G-361 and DM738 cells, varying concentrations of I3C, 48 hours
  MITF-M protein levels (western blot): strongly down-regulated MITF-M levels
MITF-M; G-361 cells, 48 hours, 200 μM I3C, 10 μM Vemurafenib or 10 μM U0126
  MITF-M protein levels (western blot): down regulated
MITF-M; SK-MEL-2 cells (wild type BRAF), I3C
  MITF-M protein levels (western blot): expressed high levels of MITF-M protein at all concentrations of I3C; also recorded: no downregulation of MITF-M levels
MITF-M transcript; G-361 and DM738 cells
  MITF-M transcript levels: strongly down regulated MITF-M transcript levels
MITF-M transcript; SK-MEL-2 cells
  MITF-M transcript levels: modest increase in MITF-M transcript levels
MITF-M promoter; 200 μM I3C
  MITF-M promoter activity (−333/+120 luciferase reporter, WT): strongly down regulated MITF-M promoter activity
